We go through 14 compounds from patent US10370372B2, “Fused pyrimidine compound or salt thereof” (TAIHO PHARMACEUTICAL CO., LTD., priority 2015, dated 2019).

Read-outs that look alike come from different tables or passages of the source.

As a reminder, the IC50 is the concentration that inhibits the measured activity by half.

Holding throughout (format): cell-based
Assay [1] concerns the target T1, human androgen receptor (Homo sapiens, UniProt P10275).
T1 construct: expressed in transfected cells; host or cells: COS-7 cells (ATCC)
T1 sequence (P10275 1-920): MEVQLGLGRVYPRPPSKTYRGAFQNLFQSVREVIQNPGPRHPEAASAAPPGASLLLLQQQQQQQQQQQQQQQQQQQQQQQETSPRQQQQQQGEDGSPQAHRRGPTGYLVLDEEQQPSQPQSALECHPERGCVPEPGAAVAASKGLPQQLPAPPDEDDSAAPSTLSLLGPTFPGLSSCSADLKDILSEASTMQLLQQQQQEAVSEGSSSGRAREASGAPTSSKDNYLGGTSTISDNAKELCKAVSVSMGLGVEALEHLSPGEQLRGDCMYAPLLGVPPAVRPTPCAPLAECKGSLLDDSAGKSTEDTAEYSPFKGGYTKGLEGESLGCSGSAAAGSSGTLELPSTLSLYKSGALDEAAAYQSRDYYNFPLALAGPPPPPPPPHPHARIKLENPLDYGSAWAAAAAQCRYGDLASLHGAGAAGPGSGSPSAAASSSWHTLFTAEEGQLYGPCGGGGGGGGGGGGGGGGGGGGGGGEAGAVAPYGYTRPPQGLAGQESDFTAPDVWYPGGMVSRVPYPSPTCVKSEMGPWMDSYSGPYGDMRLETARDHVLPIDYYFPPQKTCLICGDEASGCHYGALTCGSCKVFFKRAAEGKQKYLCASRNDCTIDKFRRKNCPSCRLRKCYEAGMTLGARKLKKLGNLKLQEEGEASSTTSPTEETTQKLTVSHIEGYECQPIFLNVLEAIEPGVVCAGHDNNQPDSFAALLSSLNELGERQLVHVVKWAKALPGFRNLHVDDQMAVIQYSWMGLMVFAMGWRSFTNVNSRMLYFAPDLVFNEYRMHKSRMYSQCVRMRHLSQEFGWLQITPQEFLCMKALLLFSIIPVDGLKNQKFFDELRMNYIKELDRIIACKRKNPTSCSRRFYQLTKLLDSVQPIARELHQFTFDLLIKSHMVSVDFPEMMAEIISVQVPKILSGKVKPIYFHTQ
In words: Antagonist activity for AR: MMTV-luc reporter transcription in COS-7 cells transfected with human AR, stimulated with DHT. The procedure:
Antagonist activity for AR was evaluated according to the following method. COS-7 cells (ATCC) were transfected with pMMTV-luc vector (reporter plasmid having, as an androgen response element, […] long terminal repeat) and pEX-hAR vector (human androgen receptor expression vector: which expresses human AR gene under control of CMV promoter) by using Nucleofector (registered trademark) Kit R (Lonza) as a transfection reagent and Amaxa (Lonza). The COS-7 cells obtained after transfection were seeded in a clear bottom 96 well microplate (BD) at 1.5×10^4/well with phenol red free RPMI1640 containing 10% charcoal-treated fetal bovine serum (hereinbelow, DCC-FBS) (hereinbelow, the medium is referred to as an evaluation medium), and then cultured overnight. […] Then, the transcription activity value of the reporter plasmid was measured. The transcription activity was measured by using Bright-Glo™ Luciferase Assay System (Promega).

Assay [2] deals with Human prostate cancer cells LNCaP. In words: Inhibitory activity on androgen-dependent proliferation of prostate cancer cells. The note with it: 1 nmol/L DHT, 72 hours, Cell Counting Kit-8, read-out: Proliferation inhibition concentration GI50 value. The procedure:
Human prostate cancer cells LNCaP (Non-Patent Literature 5) having […] androgen receptor gene were seeded in a clear bottom 96 well microplate (BD) at 4.0×10^3/well with phenol red free RPMI1640 containing 5% DCC-FBS (hereinbelow, the medium is referred to as an evaluation medium), and then cultured overnight. […] Then, the number of viable cells was measured. The number of viable cells was measured by using Cell Counting Kit-8 (DOJINDO LABORATORIES).

The test system of assay [3] is AR positive human prostate cancer cells VCaP. The experiment in a line: Agonist activity for AR: cell proliferation rate of VCaP cells. The note with it: 5-10000 nmol/L, 72 hours, relative to evaluation medium only, more than 10% = agonist activity. The procedure: Then, the number of viable cells was measured (test group). As a control, the cells were cultured after being added with the evaluation medium only, and the number of viable cells was measured (control group). The number of viable cells was measured by using CellTiter-Glo™ Luminescent Cell Viability Assay (Promega). From the measured number of viable cells, cell proliferation rate with respect to the compound of Examples or the compound of Comparative Examples was calculated based on the number of viable cells measured in the case of using the evaluation medium only. Cell proliferation rate (%)=(Number of viable cells in test group−Number of viable cells in control group)/(Number of viable cells in control group)×100
By considering an error in the number of viable cells measured in the case of using the evaluation medium only, when the cell proliferation rate was more than 10% at any concentration of the 8 concentrations which had been evaluated, it was determined to have an agonist activity for AR.

Assay [4] has as its system AR expression in LNCaP. In words: Activity of reducing expression level of androgen receptor (Western blotting in LNCaP). The note with it: Homo sapiens, read-out: AR expression reducing activity. The procedure: AR positive human prostate cancer cells LNCaP were seeded in a 6 well microplate (BD) at 3.5×10^5/well with RPMI1640 containing 5% FBS (hereinbelow, the medium is referred to as an evaluation medium), and then cultured overnight. […] After culture for 48 hours, the medium was removed and the cells were washed with PBS and added with 0.1 mL of Lysis buffer (M-PER added with Protease Inhibitor Cocktail), followed by keeping at 4° C. for 20 minutes. After cell lysis, the cell solution was centrifuged to recover the supernatant as cell lysate. […] The antibody-reacting band (anti AR receptor) was quantified by LAS Imaging System (FUJIFILM) using Super Signal West Dura Substrate (Thermo Scientific) as a detection reagent.
When the AR expression reducing activity is 50% or more, it is described as “reduced”.
For orientation: In western blotting, separated proteins are transferred to a membrane and probed.

[5] abbreviates: COS-7 cells with pMMTV-luc and pEX-hAR, 1 nmol/L DHT, 24 hours, read-out: AR antagonist IC50.
Where [6] appears, read: 10000 nmol/L, 48 hours, vs evaluation medium control.

`N#Cc1ccc(N2CCc3c(ncnc3Nc3ccc(OC(F)(F)F)cc3)C2)cc1C(F)(F)F` [Example 27, 4-(4-((4-(trifluoromethoxy)phenyl)amino)-5,6-dihydropyrido[3,4-d]pyrimidin-7(8H)-yl)-2-(trifluoromethyl)benzonitrile] displayed an IC50 in assay [1] of 1000 nM. In assay [2], the GI50 was found to be 1000 nM. Moreover, the “Cell proliferation rate (%)” value in assay [3] is given as 3.8%. In addition, the inhibition at 10 µM in assay [4] (48 h) is over 50%.

Regarding `CC(C)Oc1cc(N2CCc3c(ncnc3Nc3ccc(C(C)(C)O)cn3)C2)ccc1[N+](=O)[O-]` [Example 19, 2-(6-((7-(3-isopropoxy-4-nitrophenyl)-5,6,7,8-tetrahydropyrido[3,4-d]pyrimidin-4-yl)amino)pyridin-3-yl)propan-2-ol], the IC50 in assay [1] (setting [5]) is 1300 nM. For the same compound, in assay [2], the GI50 turned out to be 220 nM. In assay [3], the “Cell proliferation rate (%)” value is listed as 7.8%. In assay [4] (setting [6]), the inhibition at 10 µM is over 50%.

Turning to `CC(C)(C)OC(=O)N1Cc2ccc(Nc3ncnc4c3CCN(c3ccc(C#N)c(Cl)c3)C4)cc2C1` [Example 29, tert-butyl 5-((7-(3-chloro-4-cyanophenyl)-5,6,7,8-tetrahydropyrido[3,4-d]pyrimidin-4-yl)amino)isoindoline-2-carboxylate], the IC50 in assay [1] came to 220 nM. Moreover, the GI50 in assay [2] came to 830 nM. The “Cell proliferation rate (%)” value in assay [3] is 2.4%. In assay [4] (48 h), the inhibition at 10 µM is over 50%.

As to `CC(C)(O)c1ccc(Nc2ncnc3c2CCN(c2ccc([N+](=O)[O-])c(Br)c2)C3)nc1` [Example 17, 2-(6-((7-(3-bromo-4-nitrophenyl)-5,6,7,8-tetrahydropyrido[3,4-d]pyrimidin-4-yl)amino)pyridin-3-yl)propan-2-ol], the midpoint of inhibition in assay [1], the IC50, lay at 30 nM. In assay [2], the GI50 was 1200 nM. Also, the “Cell proliferation rate (%)” value in assay [3] turned out to be 9.7%. In addition, the inhibition at 10 µM in assay [4] (48 h) is over 50%.

`COc1cc(N2CCc3c(ncnc3Nc3ccc(C(C)(C)O)cn3)C2)ccc1C#N` [Example 23, 4-(4-((5-(2-Hydroxypropan-2-yl)pyridin-2-yl)amino)-5,6-dihydropyrido[3,4-d]pyrimidin-7(8H)-yl)-2-methoxybenzonitrile]: in assay [1] (setting [5]), the IC50 worked out at 19 nM. The GI50 in assay [2] is 2600 nM. Also, the “Cell proliferation rate (%)” value in assay [3] was found to be 2.3%. The inhibition at 10 µM in assay [4] (setting [6]) is over 50%.

In assay [1], `CCNC(=O)c1ccc(Nc2ncnc3c2CCN(c2ccc(C#N)c(C(F)(F)F)c2)C3)nc1F` [Example 4, 6-((7-(4-cyano-3-(trifluoromethyl)phenyl)-5,6,7,8-tetrahydropyrido[3,4-d]pyrimidin-4-yl)amino)-N-ethyl-2-fluoronicotinamide] gave an IC50 of 45 nM. In assay [2], the GI50 is 1100 nM. Also, in assay [3], the “Cell proliferation rate (%)” value was 9.7%. Further, the inhibition at 10 µM in assay [4] (48 h) was over 50%.

With `N#Cc1ccc(N2CCc3c(ncnc3Nc3ccc(C4(O)COC4)c(F)n3)C2)cc1Cl` [Example 35, 2-Chloro-4-(4-((6-fluoro-5-(3-hydroxyoxetan-3-yl)pyridin-2-yl)amino)-5,6-dihydropyrido[3,4-d]pyrimidin-7(8H)-yl)benzonitrile], the IC50 in assay [1] (setting [5]) was 120 nM. Moreover, in assay [3], the “Cell proliferation rate (%)” value is given as 9.4%. For the same compound, the inhibition at 10 µM in assay [4] (48 h) is over 50%.

Consider `Cc1cc(N2CCc3c(ncnc3Nc3ccc(C(C)(C)O)cn3)C2)ccc1C#N` [Example 20, 4-(4-((5-(2-hydroxypropan-2-yl)pyridin-2-yl)amino)-5,6-dihydropyrido[3,4-d]pyrimidin-7(8H)-yl)-2-methylbenzonitrile], for which, in assay [1] (setting [5]), the IC50 was found to be 480 nM. The “Cell proliferation rate (%)” value in assay [3] is −0.89%. Moreover, the inhibition at 10 µM in assay [4] (setting [6]) was over 50%.

In assay [1], `N#Cc1ccc(N2CCc3c(ncnc3Nc3ccc(OCCCN4CCNCC4)c(C(F)(F)F)c3)C2)cc1Cl` [Example 38, 2-chloro-4-(4-((4-(3-(piperazin-1-yl)propoxy)-3-(trifluoromethyl)phenyl)amino)-5,6-dihydropyrido[3,4-d]pyrimidin-7(8H)-yl)benzonitrile] yielded an IC50 of 950 nM. In assay [2], the GI50 worked out at 120 nM. The “Cell proliferation rate (%)” value in assay [3] is listed as −1.3%.

For the compound `CC(O)(CS(=O)(=O)c1ccc(F)cc1)C(=O)Nc1ccc(C#N)c(C(F)(F)F)c1` (centres unmarked) [Bicalutamide, reference compound], in assay [2], the GI50 came to 2300 nM. Moreover, the “Cell proliferation rate (%)” value in assay [3] is 36%. The inhibition at 10 µM in assay [4] (48 h) was under 10%.

For `CC(C)(O)c1ccc(Nc2ncnc3c2CCN(c2ccc([N+](=O)[O-])c(Cl)c2F)C3)nc1` [Example 18, 2-(6-((7-(3-chloro-2-fluoro-4-nitrophenyl)-5,6,7,8-tetrahydropyrido[3,4-d]pyrimidin-4-yl)amino)pyridin-3-yl)propan-2-ol], in assay [1] (setting [5]), the IC50 amounted to 1000 nM. In addition, the “Cell proliferation rate (%)” value in assay [3] is 9.5%.

`COc1cc(N2CCc3c(ncnc3Nc3ccc(C(C)(C)O)cn3)C2)ccc1[N+](=O)[O-]` [Example 15, 2-(6-((7-(3-methoxy-4-nitrophenyl)-5,6,7,8-tetrahydropyrido[3,4-d]pyrimidin-4-yl)amino)pyridin-3-yl)propan-2-ol]: the IC50 in assay [1] (setting [5]) worked out at 260 nM. The GI50 in assay [2] stood at 3000 nM. For the same compound, the “Cell proliferation rate (%)” value in assay [3] was determined as 7.7%.

The compound `CCNC(=O)c1ccc(Nc2ncnc3c2CCN(c2ccc(C#N)c(C(F)(F)F)c2)C3)nn1` [Example 10, 6-((7-(4-cyano-3-(trifluoromethyl)phenyl)-5,6,7,8-tetrahydropyrido[3,4-d]pyrimidin-4-yl)amino)-N-ethylpyridazine-3-carboxamide] displayed a 50% inhibitory concentration (IC50) in assay [1] of 7 nM. In addition, in assay [2], the GI50 came out at 400 nM. In assay [4] (48 h), the inhibition at 10 µM is over 50%.

`CNC(=O)c1ccc(Nc2ncnc3c2CCN(c2ccc(C#N)c(Cl)c2)C3)nc1F` [Example 2, 6-((7-(3-chloro-4-cyanophenyl)-5,6,7,8-tetrahydropyrido[3,4-d]pyrimidin-4-yl)amino)-2-fluoro-N-methylnicotinamide] returned an IC50 in assay [1] of 33 nM. Besides, the GI50 in assay [2] turned out to be 290 nM. For the same compound, the inhibition at 10 µM in assay [4] (48 h) is over 50%.
